Drawing on ChEMBL document CHEMBL1136353, “Synthesis of novel fluorescent probes for the molecular chaperone Hsp90” (Bioorg Med Chem Lett, 2003), this text covers Kds for two molecules.

The target of this assay is Heat shock protein HSP90 (Homo sapiens, UniProt P07900+P08238). As to the kind of experiment: Binding affinity towards Heat shock protein HSP 90-alpha inhibitor. The assay is classed as protein assay.

Each structure is given as a SMILES string.

For the molecule `CO[C@H]1/C=C\C=C(/C)C(=O)NC2=CC(=O)C(NCCNC(=O)CCC3=N/C(=C\c4c(C)cc(C)n4B(F)F)C=C3)=C(C[C@@H](C)C[C@H](OC)[C@@H](O)[C@@H](C)/C=C(\C)[C@@H]1OC(N)=O)C2=O`, the Kds was 33.8 nM.

Take `CO[C@H]1/C=C\C=C(/C)C(=O)NC2=CC(=O)C(NCCCCCCO/C(S)=N\c3ccc(-c4c5ccc(=O)cc-5oc5cc(O)ccc45)c(C(=O)O)c3)=C(C[C@@H](C)C[C@H](OC)[C@@H](O)[C@@H](C)/C=C(\C)[C@@H]1OC(N)=O)C2=O`: the Kds amounted to 23.3 nM.
